Experimental data taken from PubChem BioAssay (NCI).
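How tested: cells in 96-well plates exposed to compound for 48 hours at five concentrations. Definition used: TGI = concentration required for complete inhibition of growth.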

Tests used:
Assay in all cases: NCI tumour cell line growth inhibition, 48 h
SK-OV-3 ovarian = test system: SK-OV-3 ovarian
SN12C renal = test system: SN12C renal
K-562 leukemia = test system: K-562 leukemia
SNB-75 CNS = test system: SNB-75 CNS
OVCAR-5 ovarian = test system: OVCAR-5 ovarian
M19-MEL melanoma = test system: M19-MEL melanoma
DLD-1 colon = test system: DLD-1 colon
NCI-H23 lung = test system: NCI-H23 lung
HT29 colon = test system: HT29 colon
CCRF-CEM leukemia = test system: CCRF-CEM leukemia
A549 NSCLC = test system: A549 NSCLC
DMS 114 small cell lung = test system: DMS 114 small cell lung
DMS 273 small cell lung = test system: DMS 273 small cell lung
HOP-18 NSCLC = test system: HOP-18 NSCLC
HCT-116 colon = test system: HCT-116 colon
RPMI-8226 leukemia = test system: RPMI-8226 leukemia
NCI-H226 lung = test system: NCI-H226 lung
SK-MEL-2 melanoma = test system: SK-MEL-2 melanoma
SW-620 colon = test system: SW-620 colon
SK-MEL-5 melanoma = test system: SK-MEL-5 melanoma
KM20L2 colon = test system: KM20L2 colon
SN12K1 renal = test system: SN12K1 renal
SNB-19 CNS = test system: SNB-19 CNS
SF-295 CNS = test system: SF-295 CNS
MCF7 breast = test system: MCF7 breast
OVCAR-3 ovarian = test system: OVCAR-3 ovarian
NCI-H460 lung = test system: NCI-H460 lung
UO-31 renal = test system: UO-31 renal
A498 renal = test system: A498 renal
SF-539 CNS = test system: SF-539 CNS
HCT-15 colon = test system: HCT-15 colon
HCC-2998 colon = test system: HCC-2998 colon
SF-268 CNS = test system: SF-268 CNS
P388 leukemia = test system: P388 leukemia
NCI-H522 lung = test system: NCI-H522 lung
P388/ADR leukemia = test system: P388/ADR leukemia
UACC-257 melanoma = test system: UACC-257 melanoma
IGROV1 ovarian = test system: IGROV1 ovarian
UACC-62 melanoma = test system: UACC-62 melanoma
MOLT-4 leukemia = test system: MOLT-4 leukemia
HOP-62 NSCLC = test system: HOP-62 NSCLC
U251 CNS = test system: U251 CNS
OVCAR-8 ovarian = test system: OVCAR-8 ovarian
RXF 393 renal = test system: RXF 393 renal
LOX IMVI melanoma = test system: LOX IMVI melanoma
MALME-3M melanoma = test system: MALME-3M melanoma
OVCAR-4 ovarian = test system: OVCAR-4 ovarian
NCI/ADR-RES ovarian = test system: NCI/ADR-RES ovarian
COLO 205 colon = test system: COLO 205 colon
XF 498 CNS = test system: XF 498 CNS
EKVX NSCLC = test system: EKVX NSCLC
KM12 colon = test system: KM12 colon
HL-60(TB) leukemia = test system: HL-60(TB) leukemia
SK-MEL-28 melanoma = test system: SK-MEL-28 melanoma
HOP-92 NSCLC = test system: HOP-92 NSCLC
SNB-78 CNS = test system: SNB-78 CNS
CAKI-1 renal = test system: CAKI-1 renal

## CSc1nc(SC)c2cnn(CC3CO3)c2n1 (stereo unspecified)
SK-OV-3 ovarian
  TGI: > 100 µM
SN12C renal
  TGI: > 50.1 µM
K-562 leukemia
  TGI: > 100 µM
SNB-75 CNS
  TGI: 44.7 µM
OVCAR-5 ovarian
  TGI: 41.3 µM
M19-MEL melanoma
  TGI: 27.1 µM
DLD-1 colon
  TGI: 53.9 µM
NCI-H23 lung
  TGI: 34.6 µM
HT29 colon
  TGI: 47.1 µM
CCRF-CEM leukemia
  TGI: 70.5 µM
A549 NSCLC
  TGI: 64.8 µM
DMS 114 small cell lung
  TGI: 32.6 µM
DMS 273 small cell lung
  TGI: > 54.6 µM
HOP-18 NSCLC
  TGI: > 100 µM
HCT-116 colon
  TGI: 31.9 µM
RPMI-8226 leukemia
  TGI: > 100 µM
NCI-H226 lung
  TGI: 38.7 µM
SK-MEL-2 melanoma
  TGI: 31.7 µM
SW-620 colon
  TGI: > 44.7 µM
SK-MEL-5 melanoma
  TGI: 17.8 µM
KM20L2 colon
  TGI: 43.4 µM
SN12K1 renal
  TGI: 21.6 µM
SNB-19 CNS
  TGI: > 100 µM
SF-295 CNS
  TGI: 55.4 µM
MCF7 breast
  TGI: 25.7 µM
OVCAR-3 ovarian
  TGI: > 65.1 µM
NCI-H460 lung
  TGI: 40.8 µM
UO-31 renal
  TGI: 45 µM
A498 renal
  TGI: > 100 µM
SF-539 CNS
  TGI: 38.5 µM
HCT-15 colon
  TGI: > 61.4 µM
HCC-2998 colon
  TGI: 31.3 µM
SF-268 CNS
  TGI: 33.9 µM
P388 leukemia
  TGI: > 54.5 µM
NCI-H522 lung
  TGI: 77.3 µM
P388/ADR leukemia
  TGI: > 57 µM
UACC-257 melanoma
  TGI: 37.4 µM
IGROV1 ovarian
  TGI: 38.1 µM
UACC-62 melanoma
  TGI: 33.5 µM
MOLT-4 leukemia
  TGI: 7.73 µM
HOP-62 NSCLC
  TGI: 41.2 µM
U251 CNS
  TGI: 45.4 µM
OVCAR-8 ovarian
  TGI: 15.8 µM
RXF 393 renal
  TGI: 34 µM
LOX IMVI melanoma
  TGI: 19.8 µM
MALME-3M melanoma
  TGI: 45.2 µM
OVCAR-4 ovarian
  TGI: 44.2 µM
NCI/ADR-RES ovarian
  TGI: 36.3 µM
COLO 205 colon
  TGI: 35.5 µM
XF 498 CNS
  TGI: 45.4 µM
EKVX NSCLC
  TGI: > 75.4 µM
KM12 colon
  TGI: 39.2 µM
HL-60(TB) leukemia
  TGI: 45.4 µM
SK-MEL-28 melanoma
  TGI: 18.6 µM

## Cc1c2cnccc2c(C)c2c1c1ccccc1n2CC1CO1 (stereo unspecified)
SK-OV-3 ovarian
  TGI: 6.93 µM
SN12C renal
  TGI: 1.31 µM
K-562 leukemia
  TGI: 3.24 µM
SNB-75 CNS
  TGI: 0.861 µM
OVCAR-5 ovarian
  TGI: 5.54 µM
M19-MEL melanoma
  TGI: 2.94 µM
DLD-1 colon
  TGI: 4.58 µM
NCI-H23 lung
  TGI: 8.4 µM
HT29 colon
  TGI: 4.82 µM
CCRF-CEM leukemia
  TGI: 1.28 µM
A549 NSCLC
  TGI: 4.85 µM
DMS 114 small cell lung
  TGI: 2.43 µM
DMS 273 small cell lung
  TGI: 2.43 µM
HOP-18 NSCLC
  TGI: 6.56 µM
HCT-116 colon
  TGI: 5.07 µM
RPMI-8226 leukemia
  TGI: 7.6 µM
NCI-H226 lung
  TGI: 5.54 µM
SK-MEL-2 melanoma
  TGI: 3.44 µM
HOP-92 NSCLC
  TGI: 4.31 µM
SW-620 colon
  TGI: 2.8 µM
SK-MEL-5 melanoma
  TGI: 2.23 µM
SNB-78 CNS
  TGI: 5.14 µM
KM20L2 colon
  TGI: 4.62 µM
SN12K1 renal
  TGI: 2.2 µM
SNB-19 CNS
  TGI: 5.59 µM
SF-295 CNS
  TGI: 3.2 µM
MCF7 breast
  TGI: 2.91 µM
OVCAR-3 ovarian
  TGI: 3.76 µM
NCI-H460 lung
  TGI: 2.52 µM
UO-31 renal
  TGI: 3.02 µM
A498 renal
  TGI: 0.581 µM
SF-539 CNS
  TGI: 2.52 µM
HCT-15 colon
  TGI: 4.56 µM
HCC-2998 colon
  TGI: 4.4 µM
SF-268 CNS
  TGI: 2.09 µM
P388 leukemia
  TGI: 1.26 µM
NCI-H522 lung
  TGI: 3.29 µM
P388/ADR leukemia
  TGI: 1.61 µM
UACC-257 melanoma
  TGI: 3.51 µM
IGROV1 ovarian
  TGI: 5.99 µM
UACC-62 melanoma
  TGI: 8.19 µM
MOLT-4 leukemia
  TGI: 0.328 µM
HOP-62 NSCLC
  TGI: 3.34 µM
U251 CNS
  TGI: 9.1 µM
OVCAR-8 ovarian
  TGI: 2.8 µM
CAKI-1 renal
  TGI: 4.87 µM
RXF 393 renal
  TGI: 1.92 µM
LOX IMVI melanoma
  TGI: 2.74 µM
MALME-3M melanoma
  TGI: 3.44 µM
OVCAR-4 ovarian
  TGI: 5.46 µM
NCI/ADR-RES ovarian
  TGI: 3.57 µM
COLO 205 colon
  TGI: 2.87 µM
EKVX NSCLC
  TGI: 2.08 µM
KM12 colon
  TGI: 10.9 µM
HL-60(TB) leukemia
  TGI: 0.597 µM
SK-MEL-28 melanoma
  TGI: 4.03 µM

## COc1cccc2c1C(=O)c1c(O)c3c(c(O)c1C2=O)CC(O)(C(=O)CO)CC3OC1CC(N)C(I)C(C)O1 (stereo unspecified)
SK-OV-3 ovarian
  TGI: 18.6 µM
SN12C renal
  TGI: > 63.8 µM
K-562 leukemia
  TGI: > 100 µM
SNB-75 CNS
  TGI: > 100 µM
OVCAR-5 ovarian
  TGI: > 54.6 µM
M19-MEL melanoma
  TGI: 30.7 µM
DLD-1 colon
  TGI: 13.7 µM
NCI-H23 lung
  TGI: 15.1 µM
HT29 colon
  TGI: > 100 µM
CCRF-CEM leukemia
  TGI: > 100 µM
A549 NSCLC
  TGI: > 55.1 µM
DMS 114 small cell lung
  TGI: > 30.2 µM
DMS 273 small cell lung
  TGI: 7.03 µM
HOP-18 NSCLC
  TGI: 65.7 µM
HCT-116 colon
  TGI: 6.12 µM
RPMI-8226 leukemia
  TGI: > 100 µM
NCI-H226 lung
  TGI: 2.95 µM
SK-MEL-2 melanoma
  TGI: 30.4 µM
HOP-92 NSCLC
  TGI: > 63 µM
SW-620 colon
  TGI: > 100 µM
SK-MEL-5 melanoma
  TGI: 14.5 µM
SNB-78 CNS
  TGI: > 100 µM
KM20L2 colon
  TGI: > 54.2 µM
SN12K1 renal
  TGI: > 37.2 µM
SNB-19 CNS
  TGI: > 100 µM
SF-295 CNS
  TGI: 23.3 µM
MCF7 breast
  TGI: 29.4 µM
OVCAR-3 ovarian
  TGI: > 57.6 µM
NCI-H460 lung
  TGI: 12.6 µM
UO-31 renal
  TGI: 17.5 µM
A498 renal
  TGI: 21.4 µM
SF-539 CNS
  TGI: 11.8 µM
HCT-15 colon
  TGI: 14.6 µM
HCC-2998 colon
  TGI: 27.1 µM
SF-268 CNS
  TGI: > 100 µM
NCI-H522 lung
  TGI: > 100 µM
P388/ADR leukemia
  TGI: > 20.1 µM
UACC-257 melanoma
  TGI: > 52.3 µM
IGROV1 ovarian
  TGI: 18.4 µM
UACC-62 melanoma
  TGI: 7.43 µM
MOLT-4 leukemia
  TGI: > 100 µM
HOP-62 NSCLC
  TGI: 13.9 µM
U251 CNS
  TGI: 19.3 µM
OVCAR-8 ovarian
  TGI: 34.1 µM
CAKI-1 renal
  TGI: > 100 µM
RXF 393 renal
  TGI: 25.2 µM
LOX IMVI melanoma
  TGI: 9.15 µM
MALME-3M melanoma
  TGI: 25.1 µM
OVCAR-4 ovarian
  TGI: 26.9 µM
NCI/ADR-RES ovarian
  TGI: > 31.6 µM
COLO 205 colon
  TGI: > 100 µM
XF 498 CNS
  TGI: 22.2 µM
EKVX NSCLC
  TGI: > 55.5 µM
KM12 colon
  TGI: > 100 µM
HL-60(TB) leukemia
  TGI: > 100 µM
SK-MEL-28 melanoma
  TGI: > 100 µM
